ChEMBL document CHEMBL1126634, “Cyclic sulfolanes as novel and high affinity P2 ligands for HIV-1 protease inhibitors” (J Med Chem, 1993)

Tests used:
[1] = molecular target: Human immunodeficiency virus type 1 protease (Human immunodeficiency virus 1) (UniProt Q72874); assay: Antiviral potency of HIV-1 in MT-4 human T lymphoid cells with IIIb isolate; format: functional, cell-based
[2] = molecular target: Human immunodeficiency virus type 1 protease (Human immunodeficiency virus 1, UniProt Q72874); assay: Tested against S2-binding site of HIV-1 protease
MT4 = assay: Compound tested for the antiviral potency of HIV-1 in MT-4 human T lymphoid cells with IIIb isolate (n=5); format: functional; conditions: read-out: CIC95

IC95 [1] [nM] | IC50 [2] [nM] | Compound | IC95 (MT4) [nM]
– | 9 | CC(C)[C@H]1SCC[C@H]1OC(=O)N[C@@H](Cc1ccccc1)[C@H](O)CN1C[C@H]2CCCC[C@H]2C[C@H]1C(=O)NC(C)(C)C | –
400 | 5.4 | CC[C@H]1[C@@H](OC(=O)N[C@@H](Cc2ccccc2)[C@H](O)CN2C[C@H]3CCCC[C@H]3C[C@H]2C(=O)NC(C)(C)C)CCS1(=O)=O | –
200 | 11 | CC(C)[C@H]1[C@@H](OC(=O)N[C@@H](Cc2ccccc2)[C@H](O)CN2C[C@H]3CCCC[C@H]3C[C@H]2C(=O)NC(C)(C)C)CCS1(=O)=O | –
50 | 3 | CC(C)[C@@H]1[C@H](OC(=O)N[C@@H](Cc2ccccc2)[C@H](O)CN2C[C@H]3CCCC[C@H]3C[C@H]2C(=O)NC(C)(C)C)CCS1(=O)=O | –
1500 | 30 | CC(C)C[C@@H]1[C@H](OC(=O)N[C@@H](Cc2ccccc2)[C@H](O)CN2C[C@H]3CCCC[C@H]3C[C@H]2C(=O)NC(C)(C)C)CCS1(=O)=O | –
800 | 13.1 | CC[C@@H]1[C@H](OC(=O)N[C@@H](Cc2ccccc2)[C@H](O)CN2C[C@H]3CCCC[C@H]3C[C@H]2C(=O)NC(C)(C)C)CCS1(=O)=O | –
400 | 12 | CC(C)C[C@H]1[C@@H](OC(=O)N[C@@H](Cc2ccccc2)[C@H](O)CN2C[C@H]3CCCC[C@H]3C[C@H]2C(=O)NC(C)(C)C)CCS1(=O)=O | –
800 | – | CC(C)(C)NC(=O)[C@@H]1C[C@@H]2CCCC[C@@H]2CN1C[C@@H](O)[C@H](Cc1ccccc1)NC(=O)O[C@H]1CCOC1 | –

The remaining lines, values behind:

Compound | IC95 [1] [nM] | IC50 [2] [nM] | IC95 (MT4) [nM]
C[C@@H]1[C@H](OC(=O)N[C@@H](Cc2ccccc2)[C@H](O)CN2C[C@H]3CCCC[C@H]3C[C@H]2C(=O)NC(C)(C)C)CCS1(=O)=O | 200 | 22.3 | –
C[C@H]1OCC[C@H]1OC(=O)N[C@@H](Cc1ccccc1)[C@H](O)CN1C[C@H]2CCCC[C@H]2C[C@H]1C(=O)NC(C)(C)C | 1600 | 169 | –
C[C@H]1[C@@H](OC(=O)N[C@@H](Cc2ccccc2)[C@H](O)CN2C[C@H]3CCCC[C@H]3C[C@H]2C(=O)NC(C)(C)C)CCS1(=O)=O | 200 | 11.4 | –
C[C@@H]1OCC[C@@H]1OC(=O)N[C@@H](Cc1ccccc1)[C@H](O)CN1C[C@H]2CCCC[C@H]2C[C@H]1C(=O)NC(C)(C)C | 400 | 52.4 | –
NC(=O)OC[C@@H]1CCCOC1 | – | 694 | –
CC(C)(C)NC(=O)[C@@H]1C[C@@H]2CCCC[C@@H]2CN1C[C@@H](O)[C@H](Cc1ccccc1)NC(=O)O[C@H]1CCS(=O)(=O)C1 | – | 75 | 350
CC(C)(C)NC(=O)[C@@H]1C[C@@H]2CCCC[C@@H]2CN1C[C@@H](O)[C@H](Cc1ccccc1)NC(=O)OCCS(C)(=O)=O | – | 1030 | –
CC(C)(C)NC(=O)[C@@H]1C[C@@H]2CCCC[C@@H]2CN1C[C@@H](O)[C@H](Cc1ccccc1)NC(=O)O[C@@H]1CCS(=O)(=O)C1 | > 800 | 140 | –
